# A melting point compilation (Tetko et al.; mined from patent text by program, amines drawn as free bases though some values may be those of a salt)
row,melting point [°C],Structure (SMILES)
1,125 to 129,CCC1CC(=O)C2(C)CCC3c4ccc(OC)cc4CCC3C12 (configuration not stated)
2,152 to 155,COC(=O)C(C)(C)Cc1c(SC(C)(C)C)c2cc(OCc3ccc4cnccc4n3)ccc2n1Cc1ccc(Cl)cc1
3,166 to 168,COc1c(C#N)c2c(c3c1OC(C)(C)C3)C(c1ccccc1)=NC(C)(C)C2
4,104 to 109,CCC(=O)C(C(=O)OC)C(C(=O)c1ccccc1)c1ccc(F)cc1 (configuration not stated)
5,113 to 114,Cc1nc(-c2ccncc2)sc1-c1cccnc1
6,193,COc1cccc(S(N)(=O)=O)c1C
7,67 to 69,CC(C)N1C(CO)=Cc2ccsc2S1(=O)=O
8,143 to 144,O=C(c1ccc(-c2cc(Cl)ccc2OCc2ccccc2)cc1C(F)(F)F)N1CCCC1
9,113 to 114,COC(=O)CC(C#N)c1cccc2ccc(OC)cc12 (configuration not stated)
10,83 to 85,CSc1nc(N2CCN(CCCCN3C(=O)CC4(CCCC4)CC3=O)CC2)ncc1F
11,82 to 83,CCOC(=O)c1c(CN(CC)CC)nc2cc(OC)c(OC)cc2c1-c1ccc(Cl)cc1
12,96 to 98,CS(=O)(=O)NCCn1nccc1-c1ccc(Oc2ccc(F)cc2)cc1
13,52 to 54,CCNC(=O)n1nc(Oc2ncc(C(F)(F)F)cc2Cl)cc1C(F)(F)F
14,162 to 163,CC(C)(C(N)=O)C(O)(Cn1cncn1)c1ccc(Cl)cc1Cl (configuration not stated)
15,138 to 140,Cc1ccc2c(c1)C(=O)N(CCN1CCC(c3noc4cc(F)ccc34)CC1)C2=O
16,135,COc1cc(C(=O)N2CCCCc3cc(Cl)ccc32)ccc1OCc1ccccc1Cl
17,> 250,O=C1NCN2c3ccc(Cl)cc3[C@H]3CCN4CCC[C@H]1[C@H]4[C@H]32 (racemic)
18,88 to 90,CCOC(=O)Cc1c(C(=O)OCC)c(Br)c(C(=O)c2ccc(Cl)cc2)n1C
19,79,O=C(O)CCc1cc2nc(Cl)ccc2n1S(=O)(=O)c1ccc2c(c1)CCN2
20,152,O=S1(=O)NC=Nc2cc(C(F)(F)F)c(F)cc21
21,191,CC(C)C(=O)OC1(C(=O)CO)CCC2C3CC(C)C4=CC(=O)CCC4(C)C3C(O)CC21C (configuration not stated)
22,122 to 123,CNC1=NS(=O)N=C1NCCCN(Cc1ccccc1)c1ccccn1 (configuration not stated)
23,120,OCCC1(c2ccccc2)CCNCC1
24,157 to 160,Cc1nc2c3cccc(Cl)c3ccn2c1CN(C)C

row,melting point [°C],Structure (SMILES)
1,42 to 43,O=C(c1ccccc1)c1ccc(OCCCCBr)cc1
2,121 to 122,Cn1cc(SCc2ccccc2)c(=O)c(-c2cccc(C(F)(F)F)c2)c1
3,211 to 213,O=C(Nc1cccc(-c2ccnc3c(C(=O)c4cccs4)cnn23)c1)c1ccccc1
4,175 to 178,CN1C(=O)CC[C@]2(C)c3ccc(-c4ccc5c(c4)CCC5=O)cc3CC[C@@H]12
5,72,COC(=O)CCCc1cc2nc(C(F)(F)F)ccc2n1S(=O)(=O)c1cccc(OC(F)(F)F)c1
6,160 to 161,CC1=CN(c2ccc(Cl)c(Cl)c2)SC1
7,280 to 281,COc1ccc(Cn2c(=S)[nH]c(=O)c3[nH]c(C(C)C)nc32)cc1OCc1ccccc1
8,74 to 77,COC(=O)c1cccc(OCc2ccccc2)c1
9,202 to 205,CCOC(=O)C1=C(COCc2cc(=O)n(C)c(N)n2)NC(C)=C(C(=O)OC)C1c1cccc(Cl)c1Cl (configuration not stated)
10,178 to 179,O=C(Cn1c(-c2ccc(Br)cc2)nc2cccnc21)NCCN1CCCCC1
11,190,N#Cc1cc(O)n(-c2ccccc2)n1
12,263 to 265,CC1(C)CC(=O)c2c(N3CCC3)sc(-c3cc[nH]n3)c2C1
13,159,COc1ccc(C(=O)C2C(Cl)=CC=CC2(C)Cl)cc1Br (configuration not stated)
14,104 to 106,COC(=O)C(CCN(C(C)C)C(C)C)(CC(=O)N1CCCCC1)c1ccccc1Cl (configuration not stated)
15,127 to 130,CCCCc1nc2c(N)nc3ccccc3c2n1CCCCSC
16,237,CC(C)(N)c1ccc(-c2nc(Nc3ccc(F)c(Cl)c3)ncc2C#N)cc1
17,119 to 120,CC(=O)NC(COCc1cc(C)cc(C)c1)Cc1cccc2ccccc12 (configuration not stated)
18,64 to 67,O=C(O)COCC(=O)CCCCCCCCCC(=O)NONC(=O)O
19,258 to 259,CCn1cc(C(=O)O)c(=O)cc1-c1ccc(N(C)C)cc1
20,212 to 214,CCOC(=O)NNc1cc(-c2ccc(OC)cc2)c(-c2ccc(OC)cc2)nn1
21,166 to 168,COc1cc2c(Cl)c(C#N)cnc2cc1OCC1CCN(C)CC1
22,91 to 94,C=CCN(C(C)=O)c1cccc(C(=O)C=CN(C)C)c1
23,64.1 to 64.9,O=C(CC1CN2C(=O)CC2O1)OC(c1ccccc1)c1ccccc1 (configuration not stated)
24,96.5 to 97,CC(CCC=O)C1CC=C2C3=C(CCC21C)C1(C)CCC(=O)C(C)(C)C1CC3 (configuration not stated)

row,melting point [°C],Structure (SMILES)
1,121,CNC(=S)C1(c2cccc(C)n2)CCCS1 (configuration not stated)
2,126 to 127,CCc1c(Cc2cc(OC)c(OC)c(OC)c2)[nH]c(=O)c(CC(C)C)[n+]1[O-]
3,186 to 188,COc1c(C2CCN(CCCCNC(=O)c3ccc(-c4ccc(C#N)s4)nc3)CC2)ccc2c1CCCC2
4,133 to 134,CCCC(CCC)C(=O)NC1CCc2ccccc21 (configuration not stated)
5,162 to 165,CCOc1cccc(-c2nn(C(C)c3oc4ccccc4c(=O)c3-c3cccc(F)c3)c3ncnc(N)c23)c1 (configuration not stated)
6,234,CCOC(=O)c1nc2cc(Br)ccc2c(O)c1C(=O)OCC
7,145 to 146,COc1ccc(OCCCCCCc2c(C)n[nH]c2O)c(Cl)c1
8,143 to 145,O=S(=O)(c1ccc(O)cc1)c1ccc(Cl)cc1
9,180 to 182,Nc1nc2ccc(Sc3ccccc3)cc2s1
10,> 200,N#CCCN1CCN(c2cc3cccnc3c(-c3cccc(C#N)c3)n2)CC1
11,222 to 224,Cn1c(=O)c2c(nc(Cl)n2Cc2ccccc2C#N)n(C)c1=O
12,163 to 164,O=C(c1ccccc1)c1ccc(OCCCCOc2ccc(C(=O)c3ccccc3)cc2)cc1
13,187 to 189,O=C(O)Cc1ccc2c(c1)C(=O)c1cc(Cl)ccc1CS2
14,108 to 109,CCCc1c(OCCCOc2ccc3c(c2CCC)OC(C(=O)O)CC3)ccc(C(C)=O)c1O (configuration not stated)
15,83 to 86,Cc1cc(Oc2cccc(C(F)(F)F)c2)nn1C(=O)Nc1cccc([N+](=O)[O-])c1
16,95 to 99,COc1ccc2c(c1)OCC(Cc1cccnc1)C2=O (configuration not stated)
17,125,COc1c(C(C)C)cc(S(N)(=O)=O)c(C)c1C(=O)NCC1CCCN1CC1CC1 (configuration not stated)
18,95 to 96,COC(=O)/C(=C/c1ccc(OCc2ccccc2)c([N+](=O)[O-])c1)N=[N+]=[N-]
19,146 to 147,CN(C(CCN1C(=O)CNC1=O)C(=O)NO)S(=O)(=O)c1ccc(Oc2ccccc2)cc1 (configuration not stated)
20,110,Clc1cccc(N2CCN(CCCCNc3ccc(-c4ccccc4)cn3)CC2)c1Cl
21,139 to 141,Nc1nc(NCCNc2ccccc2)nc(-c2cc(Cl)ccc2Cl)n1
22,268 to 269,O=C(Nc1nnn[nH]1)c1cc(Cl)ccc1[N+](=O)[O-]
23,107 to 115,CC(C)NC(=O)N1CCC(CN2C(=O)C3(COc4cc5c(cc43)CCO5)c3ccccc32)C1 (configuration not stated)
24,137,Cc1cccc(C(=O)Nc2ccc(N3CCN(Cc4cccc(C#N)c4)CC3)cc2)c1-c1ccc(C(C)C)cc1

row,melting point [°C],Structure (SMILES)
1,130 to 131,CCOC(=O)Cn1c(=O)sc2cc(-c3ccccc3)c(Cl)cc21
2,81 to 82,CCCCCCCCCCCCCCCCCCOC(=O)P(=O)(O)O
3,192 to 194,CC[C@H](C)[C@H](NC(=O)[C@H](C)N(C(C)=O)C1CCCCC1)C(=O)N[C@@H](Cc1ccc2ccccc2c1)[C@@H](O)[C@@H](O)CC(C)C
4,83,COc1ccc(-c2sc3cc(OC)ccc3c2Br)cc1
5,216 to 217,NS(=O)(=O)c1cc(C(=O)NN(c2ccccc2)C2CCCCC2)ccc1Cl
6,55 to 58,COc1ccc(Oc2cccc3c2C2(COc4cc5c(cc42)OCCO5)C(=O)N3C)cc1 (configuration not stated)
7,153 to 154,COc1ccc(-c2c(Cl)c(CNS(=O)(=O)c3ccccc3)nc3sc4c(c23)CCN(Cc2ccccc2)C4)cc1OC
8,267 to 270,N[C@@H]1C[C@H]2CC[C@@H]1N(c1cc3c(cc1F)c(=O)c(C(=O)O)cn3C1CC1)C2
9,118,CCCCCCCCCCC[C@H](CC(=O)N[C@@H](CO)CCCNC(=O)OCc1ccccc1)OCc1ccccc1
10,204 to 208,CCC(O)c1cnc2c(C)c(NC(=O)c3ccc(-c4ccc(F)cc4)cc3)ccc2c1 (configuration not stated)
11,286 to 287,COc1ccc(-c2coc(-c3ccc(C(=O)O)cc3)n2)cc1
12,189 to 193,Cc1cc(C)cc(S(=O)(=O)n2c(CCC(=O)O)cc3cc(Cl)ccc32)c1
13,143 to 145,O=[N+]([O-])c1cc(SC(F)(F)F)[nH]c1-c1ccc(Cl)cc1
14,174 to 175,CCOCc1nc2c(N)nc3cccnc3c2n1CCCC(C)N(OC)C(=O)NC(C)C (configuration not stated)
15,279 to 280,O=C(Nc1ccc2oc3c(c2c1)CCCC3)c1ccc([N+](=O)[O-])cc1
16,153,COC(=O)c1ccc2cc([C@H]3OC[C@@H](S[C@H](C)[C@](O)(Cn4cncn4)c4ccc(F)cc4F)CO3)ccc2c1
17,161 to 164,CCNC(=O)N(c1ccc(C(O)(C(F)(F)F)C(F)(F)F)cc1)S(C)(=O)=O
18,58 to 60,COC(=O)C1=C2Nc3ccccc3C23CCN(Cc2ccccc2)C3CC1 (configuration not stated)
19,186 to 188,Cc1cc2c(-c3ccccc3)c(CC#N)n(C)c(=O)c2cc1C
20,84 to 85,N#Cc1cccc(C(=O)c2ccccc2)c1
21,168 to 170,O=[N+]([O-])c1cnc2ccc(SC(c3ccccc3)(c3ccccc3)c3ccccc3)nn12
22,63 to 65,COc1ccc(OCc2ccccc2)cc1CC#N

row,Structure (SMILES),melting point [°C]
1,Cc1nc(C(=O)NN)c2n1-c1ccc(Cl)cc1C(c1ccccc1)NC2 (configuration not stated),225 to 230
2,Clc1cccc(OC2CCN(CCc3c[nH]c4ccccc34)CC2)c1,120 to 123
3,O=C(c1c[nH]c2nc(Cl)ccc12)N1CCN2CCC1CC2,228 to 229
